Measurements from patent publication US7838536B2, “Water-soluble zinc ionophores, zinc chelators, and/or zinc complexes and use for treating cancer” (priority 2006, dated 2010).
Like-named read-outs stand apart in the source and are kept apart here.

Tests used:
[1] = tested on: PC3 prostate cancer cells; details: PC3 xenograft
Protocol: (§1) Human cell lines (A549 lung carcinoma, PC3 and DU145 prostatic carcinoma, and potentially others) were used. Mice received XRT (whole body radiation) up to 2 days prior to inoculation to minimize tumor regression due to residual immunological systems. The animal was administered a sub-lethal dose of whole body radiation of up to 4.5 Gy. The published literature indicates the LD50/30 dose for whole body radiation in the mouse to be 6.2 Gy. At the time of tumor implantation, mice were anesthetized by isoflurane inhalation or by IP injection of a ketamine/xylazine cocktail. Using vernier calipers, tumor size was measured; and tumor volume calculated on day 0 of study, at a minimum of 2-3 times/week and immediately prior to scheduled sacrifice. The tumor volume was estimated using the formula for a prolate ellipsoid: V=[(length)×(width)^2]/2 or hemi-ellipsoid: V=π/6×(length)×(width)×(height). When tumors reached a predetermined tumor volume animals were divided into treatment groups followed by test/control article dosing. Maximum allowable tumor burden prior to sacrifice is a mean surface diameter of 20 mm or not more than 10% of the animal's body weight as described in the NIH tumor burden guidelines for mice.
In this example, the ionophore was formulated in 5% mannitol.

[2] = tested on: DU145 prostate cancer cells; details: DU145 xenograft, intravenous 60 μmol/kg q.d.×4, formulated in 30% THPB-P beta-cyclodextrin vehicle, FIG. 31
Protocol: as §1

[3] = tested on: A549 human lung cancer cells; details: A549 xenograft, FIG. 28
Protocol: as §1

[4] = mouse, in vivo
[5] = zinc binding motif, well known; cited from earlier work
[6] = tested on: cancer cells; experiment: intracellular free zinc in cancer cells; type: cell-based; details: previously found
Protocol: The concentration of intracellular free zinc is assessed using the ion-specific fluorescent probe, FluoZin-3-AM-(FluoZin-3, Molecular Probes, Inc.). […] Following treatment, cells are isolated by centrifugation. Cell pellets are washed and re-suspended in a solution of 0.5% BSA in PBS. An aliquot of 10^6 cells (200 μL) is removed, centrifuged, and treated with FluoZin-3 reaction buffer An aliquot of the cell suspension is supplemented with 2 μg/mL propidium iodide (Sigma Biochemical), incubated for 5 minutes, and subjected to two-parameter flow cytometric analysis. See, e.g., FIG. 27.

[7] = tested on: cancer cells; details: reported; cited from earlier work
[8] = tested on: cell lines including A549 lung, PC3 prostate, K1 and E89 Chinese hamster ovary (CHO), Ramos, DHL-4, and HF-1 B-cell lymphoma; experiment: standard tetrazolide reduction proliferation assay; type: cell-based; details: ZnHPT formed in situ from HPT and zinc
Protocol: The proliferation of exponential phase cultures of A549 and PC3 cells is assessed by formazan reduction. In brief, A549 (2000 cells/well) or PC3 (4000 cells/well) cells are seeded on 96-well microtiter plates and allowed to adhere overnight. Stock solutions of ZnHPT or PEGZnHPT in medium are serial diluted in a ratio of 1:4 down the plate. Stock solutions of MGd or ZnOAc2 or 5% mannitol in ACS grade water are added and plates are incubated at 37° C. under a 5% CO2/95% air atmosphere. After 24 hours, medium is replaced with fresh medium. After 2 additional days, medium is exchanged for fresh medium (150 μL/well) supplemented with the tetrazolium dye, 3-(4,5-dimethylthiazol-2-yl)-2,5-diphenyltetrazolium bromide (MTT, Sigma Chemical, 0.5 mg/mL). Plates are incubated at 37° C. and viable cells measured. […] Alternatively cellular reduction within plateau phase cultures is measured after 24 hours of treatment as a measure of the cytotoxicity due to treatment.

[9] = tested on: thioredoxin reductase; details: cells co-treated with MGd and ZnHPT, previously found
Protocol: Thioredoxin reductase activity is assessed by measuring the rate of lipoate reduction. In brief, A549 or PC3 cells (10,000 cells/well) are plated on 96-well plates and allowed to adhere overnight and grow two additional days until confluent. Cells are treated with ZnHPT, PEGZnHPT, MGd, zinc, or 5% mannitol as above for 4 hours. Medium is removed, cells are washed with Hanks Balanced Salt Solution (HBSS), and a solution of 5 mM lipoic acid and 1 mM 5,5′-dithiobis(2-nitrobenzoic acid) in HBSS (100 μL/well) is added. Plates are incubated at ambient temperature in the dark. At chosen time intervals, plate absorbance is measured at 405-650 nm. Plate absorbances are normalized to wells containing neither exogenous zinc nor texaphyrin complex to allow plate-to-plate comparison.

[10] = cited from earlier work

2-thiol-5-((2-(2-methoxyethoxy)ethoxy)methyl)pyridine-N-oxide, Zn complex [5-PEG-[2]-ZnHPT]
anticancer activity (tumor regrowth) as compared to control vehicle ([1]; intravenous 100 μmol/kg q.d.×2 and q.d.×4, formulated in 5% mannitol, FIG. 30): significant anticancer activity

2-thiol-5-((2-methoxyethoxy)methyl)pyridine-N-oxide, Zn complex [5-PEG-[1]-ZnHPT]
anticancer activity (tumor regrowth) as compared to control vehicle [2]: significant anticancer activity

COCCOCCOCCOCc1ccc([S-])[n+]([O-])c1.COCCOCCOCCOCc1ccc([S-])[n+]([O-])c1.[Zn+2] [5-PEG-[3]-ZnHPT, 2-thiol-5-((2-(2-(2-methoxyethoxy)ethoxy)ethoxy)methyl)pyridine-N-oxide, Zn complex]
anticancer activity (tumor regrowth) ([3]; in combination with MGd): significant anticancer activity
anticancer activity (tumor regrowth) ([3]; without MGd): significant anticancer activity
anticancer activity (tumor regrowth) ([1]; FIG. 29): significant anticancer activity
maximum tested without evidence of toxicity [4]: ≥ 120 µmol/kg

On1ccccc1=S [HPT]
logKβ2 [5]: 5.4

CC(=O)[O-].CC(=O)[O-].CCc1c(CC)c2cc3nc(cnc4cc(OCCOCCOCCOC)c(OCCOCCOCCOC)cc4ncc4nc(cc1[n-]2)C(CCCO)=C4C)C(C)=C3CCCO.O.[Gd+3] [MGd, motexafin gadolinium]
intracellular free zinc [6]: increased intracellular free zinc

On1ccccc1=S [ZnHPT, 1-hydroxypyridine-2-thione]
growth of cancer cells in culture [7]: inhibit the growth of cancer cells in culture
inhibition of proliferation [8]: inhibits proliferation in a dose dependent manner
inhibition of thioredoxin reductase [9]: synergistic inhibition
bioavailability ([10]; oral, typically formulated as a suspension in vegetable oil): poorly bioavailable
toxicity on oral administration ([10]; orally administered to laboratory animals): not found to be particularly toxic

Zinquin
logKβ2 [5]: ca. 18
